Consider one compound from PubChem BioAssay (NCI).

Molecules are shown by their SMILES.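 Dose response: 5 concentrations. Exposure: 48 h. Format: 96-well plates. Endpoint: linear interpolation; highest concentration if not reached. The concentration for full growth arrest is given as TGI.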 Bounds are passed on as bounds.

Some test systems named below: OVCAR-4 ovarian; T-47D breast; A498 renal; LOX IMVI melanoma; SNB-19 CNS; 786-0 renal; MALME-3M melanoma; SK-MEL-5 melanoma; NCI-H522 lung; MDA-N; SR leukemia.
Holding throughout (test): inhibition of tumour cell growth, NCI panel, 48 h

Consider `NNC(=O)C1(NC(=O)c2ccccc2)C(c2ccccc2)C(c2ccccc2)=NN1c1ccccc1` (stereo unspecified), for which the TGI with OVCAR-4 ovarian, with T-47D breast, with A498 renal, with LOX IMVI melanoma, with SNB-19 CNS and in the test with 786-0 renal was more than 100 µM each time. Further, the TGI in the test on MALME-3M melanoma is more than 100 µM; in the test on SK-MEL-5 melanoma, more than 100 µM; in the test on NCI-H522 lung it was more than 100 µM; in the test on MDA-N it was 57.9 µM; with SR leukemia, 65.6 µM.
